Tests used:
[1] = Pharmacokinetic parameters after intravenous administration to rats; format: in vivo; conditions: Han/Wistar, rat, plasma, male Wistar rats, 20 nmol/kg
Experimental: Pharmacokinetic parameters of the test compounds were determined after intravenous administration to Han/Wistar rats. The acylated GLP-1 analogue semaglutide was also tested for comparison purposes.
Male Wistar rats were obtained from Charles River (Germany) weighing approximately 180 to 210 g at time of arrival at the test facility. Rats were caged in European standard rat cages type IV with light cycle of 12-hour dark and 12-hour light. During the study rats were housed in standard rat cages type III. Both diet Altromin 1324 (Altromin, Germany) and water was administered ad libitum during the whole experimental period. The animals were housed in the test facility for at least 4 days in order to assure proper acclimatization.
The compounds were first dissolved in 0.1% aqueous ammonia to a nominal concentration of 2 mg/ml, and then diluted to the desired dosing strength (10 μM) in sterile PBS containing 25 mM phosphate buffer, pH 7.4. Intravenous injections corresponding to 20 nmol/kg were given via a lateral tail vein.
Blood samples (200 μl) were collected from the periorbital plexus at time points 0.08, 0.25, 0.5, 1, 2, 4, 8, 24, 32 and 48 h post dosing into K3EDTA tubes and centrifuged for 5 minutes at 4° C. within 20 minutes of sampling. Plasma samples (>100 μl) were transferred to 96-well PCR plates, immediately frozen and kept at −20′C until analysed for plasma concentration for the respective GLP-1-glucagon compound using LC-MS/MS. Individual plasma concentration-time profiles were analysed by a non-compartmental approach using ToxKin™ version 3.2 (Unilog IT Services), and the resulting pharmacokinetic parameters were determined.

[2] = Oral glucose tolerance test (OGTT) in mice; format: in vivo; conditions: male C57BL6/J mice, 30 nmol/kg subcutaneous, blood glucose AUC 0-120 min
Experimental: Effects of the test compounds on glycemic control were determined by an oral glucose tolerance test (OGTT) in 7-8 weeks old male C57BL6/J mice (obtained from Charles River Laboratories, Germany). Animals were housed in groups in individually ventilated cages (Tecniplast green line) with a 12-hour light cycle. They had ad libitum excess to a standard rodent diet (Provimi Kliba 3438) and water. The animals were housed in the test facility for at least one week prior to the OGTT. All experimental protocols concerning the use of laboratory animals were reviewed by a federal Ethics Committee and approved by governmental authorities.
The compounds were first dissolved in 0.1% aqueous ammonia to a nominal concentration of 2 mg/ml, and then diluted to the desired dosing strength in sterile PBS containing 25 mM phosphate buffer, pH 7.4. Compounds were administered in the morning by subcutaneous injection at a dose of 30 nmol/kg and a volume of 5 ml/kg. Control animals received a vehicle injection only. The GLP-1 analogue liraglutide was tested for comparison purposes. Group size was 5 animals per group.
The OGTT was performed 24 h or 48 h after compound administration. Animals were fasted for 10 h before the OGTT but still had ad libitum excess to water. After overnight fasting, a baseline blood sample (0 min) was obtained by tail bleed and blood glucose was measured with a glucometer. […]

[3] = target: T1, human glucagon-like peptide 1 receptor (GLP-1R) (Homo sapiens, UniProt P43220); assay: GLP-1 receptor efficacy assay (cAMP AlphaScreen, CHO cells); format: cell-based; conditions: EC50[GLP-1R]/EC50[Glucagon-R], human receptors in CHO-K1
T1 construct: expressed in transfected cells
Text: The cDNA encoding either the human glucagon receptor (Glucagon-R) (primary accession number P47871) or the human glucagon-like peptide 1 receptor (GLP-1R) (primary accession number P43220) were synthesized and cloned into a mammalian expression vector containing a Zeocin resistance marker.
The mammalian expression vectors encoding the Glucagon-R or the GLP-1-R were transfected into Chinese hamster ovary (CHO) cells by the Attractene method. Stably expressing clones were obtained by Zeocin selection (250 μg/mL) upon limited dilution of cells resistant to the selection pressure. Glucagon-R and GLP-1-R cell clones expressing were picked, propagated and tested in the Glucagon-R and GLP-1-R efficacy assays as described below. […]
CHO cells expressing the human Glucagon-R, or human GLP-1-R were seeded 24 hours prior to the assay at 5000 cells per well in 384-well microtiter plates in culture in 50 μl growth medium. […] After two hours of incubation at room temperature in the dark, the cAMP content was determined applying the AlphaScreen™ cAMP Functional Assay Kit from Perkin-Elmer according to manufacturer instructions. EC50 and relative efficacies compared to reference compounds (glucagon and GLP-1) were calculated applying computer aided curve fitting. The GLP-1/glucagon ratio is calculated as defined earlier.

T1 sequence (P43220 24-463): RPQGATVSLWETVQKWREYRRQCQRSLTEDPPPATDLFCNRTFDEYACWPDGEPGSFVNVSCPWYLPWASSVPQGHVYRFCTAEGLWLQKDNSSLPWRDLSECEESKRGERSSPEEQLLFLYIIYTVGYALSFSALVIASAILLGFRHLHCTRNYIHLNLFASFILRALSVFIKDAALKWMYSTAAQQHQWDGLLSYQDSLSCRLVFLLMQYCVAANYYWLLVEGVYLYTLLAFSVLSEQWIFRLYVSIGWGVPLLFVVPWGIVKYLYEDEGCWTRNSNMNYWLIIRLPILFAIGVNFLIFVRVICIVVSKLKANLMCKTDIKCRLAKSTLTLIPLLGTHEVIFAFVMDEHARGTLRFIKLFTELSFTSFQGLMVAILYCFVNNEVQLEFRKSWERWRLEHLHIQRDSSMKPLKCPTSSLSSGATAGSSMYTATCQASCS

CC[C@H](C)[C@H](NC(=O)[C@H](Cc1ccccc1)NC(=O)[C@H](CC(=O)O)NC(=O)[C@H](CCCCN)NC(=O)[C@H](C)NC(=O)[C@H](C)NC(=O)[C@H](CCCNC(=N)N)NC(=O)[C@H](CCC(=O)O)NC(=O)[C@H](CC(=O)O)NC(=O)[C@H](CC(C)C)NC(=O)[C@H](Cc1ccc(O)cc1)NC(=O)[C@H](CCCCN)NC(=O)[C@H](CO)NC(=O)[C@H](Cc1ccc(O)cc1)NC(=O)[C@H](CC(=O)O)NC(=O)[C@H](CO)NC(=O)[C@@H](NC(=O)[C@H](Cc1ccccc1)NC(=O)[C@@H](NC(=O)CNC(=O)[C@H](CCC(N)=O)NC(=O)C(C)(C)NC(=O)[C@@H](N)Cc1c[nH]cn1)[C@@H](C)O)[C@@H](C)O)C(=O)N[C@@H](CCC(=O)O)C(=O)N[C@@H](Cc1c[nH]c2ccccc12)C(=O)N[C@@H](CC(C)C)C(=O)N[C@@H](CCC(=O)O)C(=O)N[C@@H](CCCCNC(=O)CNC(=O)CNC(=O)[C@H](CO)NC(=O)CNC(=O)[C@H](CO)NC(=O)CNC(=O)CC[C@H](NC(=O)CCCCCCCCCCCCCCCCC(=O)O)C(=O)O)C(=O)N[C@@H](C)C(N)=O [Compound 1]
clearance [1]: 5.4 mL/h/kg | MRT ([1]; read-out: Mean Residence Time): 19.2 h | half-life ([1]; read-out: Terminal half life (converted)): 15.2 h | OGTT AUC 30 nmol/kg 24 h ([2]; OGTT 24 h after administration): 56 % CTL | OGTT AUC 30 nmol/kg 48 h ([2]; OGTT 48 h after administration): 74 % CTL | Ratio GLP-1/Glucagon [3]: 0.13
